# Measured values as given in a melting point compilation (Tetko et al.; mined from patent text by program, amines drawn as free bases though some values may be those of a salt).
row,melting point [°C],Structure (SMILES)
1,108 to 110,Cc1c(C)c2c(c(C)c1NC(=O)CC(C)C)C(O)(c1ccc3ccccc3c1)C(C)(C)O2 (centres undefined)
2,64 to 65,C=CCc1cc(C(C)=O)c(O)cc1OCCCCCC(=O)OC
3,99 to 100,N#CCc1ccc(OCc2ccccc2)cc1OCc1ccccc1
4,182 to 183,O=C(Nc1cccc(C(=O)O)c1OCc1ccccc1Cl)c1ccccc1Cl
5,224 to 226,COc1ccc(C(=O)O)c2c1OCCO2
6,228 to 230,COC(=O)C(C)(C)c1ccc(C(=O)Nc2cn3cc(C)ccc3n2)cc1
7,160 to 161,COC(=O)C(Cc1ccccc1)Oc1ccc2cc(CNC(=O)c3ccc(C4CCCCC4)cc3)ccc2c1Br (centres undefined)
8,206 to 208,CC(=O)N1CCc2c(c3ccc(-n4ccc(OCc5ccccc5)cc4=O)nc3n2C)C1
9,196,CC(=O)OC1CSC(Oc2ccc(-c3cccnc3)nc2)C(OC(C)=O)C1OC(C)=O (centres undefined)
10,186 to 188,Cc1ccc(C(O)=S)cn1
11,220,CCCCc1nc(CO)c(Sc2ccccc2)n1Cc1ccc(-c2ccccc2C(=O)O)cc1
12,176 to 178,Nc1cnc(Br)c(N)n1
13,215 to 216,CCCS(=O)c1ccc2[nH]c(NC(=O)OC)nc2c1 (centres undefined)
14,93.5 to 94.2,CC(C)c1cc(Sc2cc(C(C)C)c(O)c(C(C)C)c2)cc(C(C)C)c1O
15,98 to 100,CCn1nc(C(F)(F)F)c(CS(=O)(=O)C2=NOC(C)(C)C2)c1OC(F)F
16,60,CCOC(=O)c1ccc(CC#N)cc1Cl
17,191 to 192,N#Cc1c(-c2ccccc2)c(-c2ccccc2)nn(CC(=O)NN)c1=O
18,121 to 122,CCCc1nn(-c2ccc(C(F)(F)F)cn2)cc1CCCOc1ccc(CC(=O)O)cc1OC
19,168 to 170,NC(=O)CC(CC(N)=O)c1ccccc1Br
20,201 to 202,CCc1noc(C2=C(C)NC(C)=C(C(=O)OCCOC)C2c2cc(Cl)cc(Cl)c2)n1 (centres undefined)
21,252 to 254,Nc1ncnc2c1c(-c1ccc(Oc3ccccc3)cc1)cn2C1CCC(=O)CC1
22,64 to 66,Nc1cccc2cc(-c3ccccc3)cnc12

row,melting point [°C],Structure (SMILES)
1,204 to 205,CC1CC(=O)NN=C1c1ccc2c(c1)N(C(C)C)C(=O)C(C)O2 (centres undefined)
2,138 to 141,Cc1ccccc1-c1ccc(C(=O)N2Cc3ccc(C(=O)NCc4ccccc4)n3Cc3ccccc32)cc1C
3,83 to 85,CCOC(=O)CCCOc1ccc(C=Cc2ccncc2)cc1
4,> 230,CCCCn1c(=O)n(C2OC(CO)C(O)C2O)c2nc(N)[nH]c(=O)c21 (centres undefined)
5,185,CCOC(=O)c1nc2ccc(C(C(C)C)n3ccnc3)cc2[nH]c1=O (centres undefined)
6,157 to 160,CN(c1ccc2c(c1)CCC2)c1nc(=O)c2cccnc2s1
7,58 to 63,O=C(Nc1cccc(C(F)(F)F)c1)OCC1(COC(=O)Nc2cccc(C(F)(F)F)c2)CSc2ccccc2C1=O
8,105 to 112,Nc1nc(OCCC2CCCCC2)nc2c1ncn2C1OC(CO)C(O)C1O (centres undefined)
9,208 to 211,CC(C)(O)Cn1c(Oc2ccc(-n3c4ncccc4n4ccnc34)cc2)nc2ccccc21
10,217 to 236,CCCC(=O)c1c(C(C)(C)C)cc(C=[N+]([O-])C(C)(C)C)cc1C(C)(C)C
11,98 to 99,CCCc1c(S)ccc2c(=O)c(C(=O)OC)coc12
12,158 to 159,COc1cccc(OCCO)c1-c1ccc(C[C@H](NC(=O)c2c(Cl)cccc2Cl)C(=O)O)cc1
13,107 to 108,CON=Cc1c(C(=O)OC)[nH]c2c(C)ccc(C)c12
14,47 to 49,O=C(c1ccc(Br)cc1)c1ccc2cc[nH]c2c1
15,157 to 158,Oc1cccc2oc(Cc3cccc(C(F)(F)F)c3)nc12
16,199 to 202,Cc1cc(C)cc(N2CCN(Cc3ncn(C(c4ccccc4)(c4ccccc4)c4ccccc4)c3C)C2=O)c1
17,170,COc1ccc(NC(=O)C#Cc2ccc(CN3CCCCC3)cc2)cc1
18,59 to 63,O=C(CCl)NCCCCOc1cc(CN2CCCCC2)ccn1
19,156 to 157,Cc1cc2c(c(C)c1NC(=O)OC(C)(C)C)C(=O)C(C)(C)O2
20,102 to 107,CCOC(=O)Cc1cc(OC)c(OC(C)=O)c(C2(OC(C)=O)C(=O)c3ccccc3C2=O)c1
21,210 to 214,COc1cc2c(cc1OC)-c1c(-c3ccccc3)c(-c3cc(C)c(O)c(C)c3)c(C)n1CC2

# The remaining lines, values behind:
row,Structure (SMILES),melting point [°C]
1,Cc1nc(N)c2nc(C)n(CCNC(=O)N3CCOCC3)c2c1C,219 to 221
2,CNc1nc(C)c(-c2cn3cc(Cl)ccc3n2)s1,242 to 243
3,c1ccc2nc(N3CCNCC3)ncc2c1,64 to 66
4,Nc1ccccc1Nc1ccc(C(=NO)c2ccccc2)cc1,89 to 91
5,O=C(NCC1CCCC1)c1ccc2[nH]ccc2c1,110 to 112
6,OC(CNC1CC1)c1ccc(Br)cc1 (centres undefined),105 to 107
7,Cc1c[nH]c2c(/C=C/C#N)cccc12,225 to 227
8,O=C(Nc1ccccc1)C1=Cc2ccccc2S1(=O)=O,> 220
9,CCCCCCCCCCCCCCOc1ccccc1NC(=O)c1cc(Sc2nnnn2-c2cccc(C(=O)OCC)c2)c2ccccc2c1O,88 to 90
10,CNC1=Nc2ccc(Cl)cc2C(c2ccc[nH]2)=NC1,251
11,O=C(O)CCCC(=O)N1CCC(C2c3ccccc3C=Cc3ccccc32)CC1,180 to 186
12,COC(=O)CC1OCCN(CCc2c[nH]c3ccc(C)cc23)C1=O (centres undefined),138
13,COCc1cccc(Cl)c1NC(=O)CC1c2ccccc2Oc2ccccc21,184 to 185
14,O=C(O)c1cnc(N2CCN(S(=O)(=O)c3ccc4ccccc4c3)CC2)nc1,> 260
15,CCOC(=O)c1ccc(/C=C(\COCc2ccc(OC)cc2)Cn2ccnc2)c(OC)c1,74 to 74.5
16,Cc1ccc(Br)c(Cl)c1NS(=O)(=O)c1ccccc1C(=O)O,238 to 242
17,CS(=O)(=O)Nc1cnc(NC(=O)[C@H](CC2CCCC2)c2ccc(S(C)(=O)=O)c(Cl)c2)cn1,108 to 110
18,COc1cc(-c2cc3ccccc3[nH]2)ccc1OS(C)(=O)=O,194
19,N#Cc1c(NC(=O)C2CCCCC2)sc(-c2ccccc2)c1C#N,208 to 212

row,Structure (SMILES),melting point [°C]
1,O=C1CCCc2c1c1ccccc1n2Cc1ccccc1,157 to 158
2,CCCCCNS(=O)(=O)NC(=O)OCc1ccc(OCCOC)cc1Oc1ncc(C(F)(F)F)cc1Cl,153 to 155
3,CC(=O)c1ccc2c(c1)Cc1ccc(C(C)=O)cc1-2,155
4,COC(=O)c1cc(S(N)(=O)=O)c(OC)c2c1OCCO2,202 to 203
5,C=CC=CC(=O)Nc1cc2c(Nc3cccc(Br)c3)ncnc2cn1,210 to 215
6,Cn1cncc1C(O)(c1ccc(Cl)cc1)c1ccc2c(c1)C(c1cccc(Cl)c1)=NCC(=O)N2 (centres undefined),200
7,O=C(N1CCc2ccc(Cl)c(O)c2CC1)C(F)(F)F,133 to 134
8,c1csc(-c2ccc(-c3cn([C@H]4CN5CCC4CC5)nn3)cc2)c1,214
9,CNC(=O)CCC12CC(c3ccccc31)c1ccccc12,200 to 201
10,CCC1CC(=O)N(Cc2ccc(C(=O)NC3CCCC3)cc2)N=C1c1ccc(OC)c(OC2CCCC2)c1 (centres undefined),73
11,CC1(C)NCC(O)(c2ccccc2)CN1,108
12,CN(C)c1ccc(C2(CNC(=O)Nc3ccccc3CCc3cc(C(C)(C)C)c(O)c(C(C)(C)C)c3)CCCC2)cc1,174 to 175
13,Cc1ccc(S(=O)(=O)N2CCCCC2)cc1,148 to 150
14,CC(Oc1ccc(Oc2ccc(C(F)(F)F)cc2)cc1)C(=O)OCC#N (centres undefined),53 to 56
15,CN(C)C(=O)c1ccc(N)cc1S(=O)(=O)NC(C)(C)C,205 to 208
16,COc1nc2cc(Cl)c(Cl)c(-c3nnnn3CCCO)c2nc1OC,188 to 189
17,CNC(=S)NCc1nc(C(C)C)c(Sc2cc(Cl)cc(Cl)c2)n1C,188 to 190
18,NC(=O)c1ncn2c1[C@@H]1CCN1C(=O)c1cc(Cl)ccc1-2,251 to 253
19,O=CN1CCc2cc(O)ccc2C1,186

row,Structure (SMILES),melting point [°C]
1,Clc1ccc(-c2ncsc2Cn2cncn2)c(Cl)c1,120 to 123
2,COc1ccc(-c2nn(Cc3ccccc3)c(=O)cc2-c2ccncc2)cc1,154 to 155
3,Cc1ccc(Br)c(C)c1C#N,60
4,CC(=O)Nc1cccc2c1Oc1ccccc1C21CCN(C)CC1,176 to 178
5,CN1C(=O)N(C)C(=O)C(Cc2ccccc2)(Cc2ccccc2)C1=O,128 to 129
6,COC(=O)N1CC1C(N)=O (centres undefined),117 to 120
7,COC1CCCCC1n1nnc2c([N+](=O)[O-])cccc21 (centres undefined),134 to 136
8,c1ccc(-n2c(-c3ccc(-c4ccc(-c5nc6c7ccccc7c7ccccc7c6n5-c5ccccc5)cc4)cc3)nc3c4ccccc4c4ccccc4c32)cc1,402
9,CSc1nnc(-c2ccc(-c3ccccc3)cc2)n1-c1ccccc1F,199 to 200
10,CN(C)C(N)=Nc1cc(Cl)ccc1N1CCOCC1,135 to 138
11,Cc1ccc(-c2[nH]c(-c3cccnc3)nc2C(=O)O)cc1,140 to 142
12,CN1C(=O)CC[C@]2(C)c3ccc(-c4ccc(Cl)cc4)cc3CC[C@@H]12,192
13,"OCC1CN(Cc2ccccc2)CC=C1c1ccc(F)cc1 (single isomer, unassigned; (+))",68 to 68.5
14,Cc1c(Sc2ccc(Cl)cc2)nn(-c2ccc3c(c2)OCO3)c(=O)c1C#N,166 to 168
15,Cc1ccc(C(=O)O)c(-c2ccc(Cl)c(C(=O)NCC34CC5CC(CC(C5)C3)C4)c2)n1,209 to 211
16,CCOc1nc(-c2ccc(OC)c(OC)c2)cc(=Nc2c(C)cc(C)cc2C)n1C,116 to 119
17,S=C(Nc1cccc(Br)c1)N1CCCSC1c1ccccc1 (centres undefined),135 to 137
18,COc1ccc2c(=O)[nH]c(-c3ccc(OCCNC(C)C)c(-c4ccc(S(C)(=O)=O)cc4)n3)nc2c1,204 to 205
